Test results as given in article PMC11475281, “A Novel Liver Cancer-Selective Histone Deacetylase Inhibitor Is Effective against Hepatocellular Carcinoma and Induces Durable Responses with Immunotherapy” (ACS Pharmacology & Translational Science, 2024).

Experiments:
Hep-G2 cells = assay: RNA-seq gene set enrichment analysis (Hallmark and GOBP GSEA); format: cell-based, human; conditions: 24 h
Description: To obtain transcriptome level evidence that may shed light on the HCC-selectivity and/or the enhanced potency of the combination of STR-V-53 with anti-PD-1 antibody, we performed RNA sequencing (RNA-seq) analysis on STR-V-53-treated Hep-G2 cells, incubated at IC50 and 2× IC50 for 24 h, relative to the untreated (DMSO) control. We first conducted gene set enrichment analysis (GSEA) using hallmark and gene ontology biological process (GOBP) gene sets to analyze the effect of STR-V-53 vs DMSO-treated control on the Hep-G2 transcriptome.[42],[43] […] Negative enrichment of the G2 M checkpoint pathway supports the finding that STR-V-53 induced S phase arrest in Hep-G2 cells (see Figure 4). […]
and allowed to grow for 48 hours.
RCF, with this washing step repeated twice. Next, using RNeasy Plus Mini Kit and Qiagen QIAcube […]
determined using a DeNovix spectrophotometer. Subsequently, quality control of the RNA samples was […]
(base call error rate of […]).
FASTQ files of samples were analyzed through the RNA-seq pipeline provided by the Gryder lab1. Reads were aligned to hg38 using STAR version 2.5.3a, and gene expression was calculated as Transcripts per Million mapped reads (TPM) using RSEM version 1.3.3 and filtered for coding genes. Differentially expressed genes lists were generated for each sample by calculating log2 fold change of the averaged sample TPM versus the averaged DMSO-treated control cells TPM and filtering for genes with |log2 fold change| > -1 and false discovery rate < 0.25. Hallmark2 and gene ontology biological processes (GOBP)3 gene set enrichment analysis (GSEA) was performed on the differentially expressed gene lists using the GSEA software (parameters: Run GSEAPreranked, Collapse/Remap- No_Collapse)4. GSEA results were interpreted and visualized using scripts provided by the Gryder lab1.Volcano plots were generated using DESeq2v1.41.1 and visualized with the ggplot2 R packages5,6. […]

[1] = test system: NCI-60 panel cancer cells; assay: NCI-60 panel one-dose screen; format: cell-based; conditions: 10 μM
Description: To further investigate the cancer cell-type selectivity of these glycosylated HDACi, we screened STR-V-53 (10 μM) in the NCI 60 panel. […] The antiproliferative effect of STR-V-53 against Hep-G2 cells and its lack of growth inhibition in the NCI-60 panel strongly support the HCC cell-selective attribute of STR-V-53 and possibly other lead glycosylated HDACi identified herein.

**Q.** With `O=C(CCCCCCn1cc(-c2ccc(O[C@H]3O[C@H](CO)[C@@H](O)[C@H](O)[C@H]3O)cc2)nn1)NO` [STR-V-53] as the molecule, how does the “NES, G2/M checkpoint (Hallmark GSEA)” value (Hep-G2 cells; 2× IC50 (20 μM)) read?
**A.** −2.2

**Q.** And the “NES, MYC targets v1 (Hallmark GSEA)” value (Hep-G2 cells; 2× IC50 (20 μM))?
**A.** −2.3

**Q.** What about the “NES, MYC targets v2 (Hallmark GSEA)” value (Hep-G2 cells; 2× IC50 (20 μM)) of the same molecule?
**A.** −2.6

**Q.** What about the “NES, PI3K/Akt/mTOR signaling (Hallmark GSEA)” value (Hep-G2 cells; 2× IC50 (20 μM)) of the same molecule?
**A.** −1.7

**Q.** What about the “NES, antimicrobial humoral immune response mediated by an antimicrobial peptide (GOBP GSEA)” value (Hep-G2 cells; 2× IC50 (20 μM)) of the same molecule?
**A.** 1.9

**Q.** And the “NES, cytokine-mediated signaling pathway (GOBP GSEA)” value (Hep-G2 cells; 2× IC50 (20 μM))?
**A.** −1.4

**Q.** And the “NES, glucose-regulated transcription genes (GOBP GSEA)” value (Hep-G2 cells; 2× IC50 (20 μM))?
**A.** −1.8

**Q.** And the “NES, humoral immune response (GOBP GSEA)” value (Hep-G2 cells; 2× IC50 (20 μM))?
**A.** 1.7

**Q.** And the “NES, innate immune response in the mucosa (GOBP GSEA)” value (Hep-G2 cells; 2× IC50 (20 μM))?
**A.** 2.3

**Q.** And the “NES, p53 pathway (Hallmark GSEA)” value (Hep-G2 cells; 2× IC50 (20 μM))?
**A.** 1.6

**Q.** What about the “NES, positive regulation of glucose import (GOBP GSEA)” value (Hep-G2 cells; 2× IC50 (20 μM)) of the same molecule?
**A.** −1.6

**Q.** And the “NES, G2/M checkpoint (Hallmark GSEA)” value (Hep-G2 cells; IC50 (10 μM))?
**A.** −2.9

**Q.** And the “NES, MYC targets v1 (Hallmark GSEA)” value (Hep-G2 cells; IC50 (10 μM))?
**A.** −2.6

**Q.** What about the “NES, MYC targets v2 (Hallmark GSEA)” value (Hep-G2 cells; IC50 (10 μM)) of the same molecule?
**A.** −2.3

**Q.** What about the “NES, antimicrobial humoral immune response mediated by an antimicrobial peptide (GOBP GSEA)” value (Hep-G2 cells; IC50 (10 μM)) of the same molecule?
**A.** 1.9

**Q.** And the “NES, glucose-regulated transcription genes (GOBP GSEA)” value (Hep-G2 cells; IC50 (10 μM))?
**A.** −1.8

**Q.** What about the “NES, humoral immune response (GOBP GSEA)” value (Hep-G2 cells; IC50 (10 μM)) of the same molecule?
**A.** 1.9

**Q.** What about the “NES, innate immune response in the mucosa (GOBP GSEA)” value (Hep-G2 cells; IC50 (10 μM)) of the same molecule?
**A.** 2.1

**Q.** And the “Mean cell growth in NCI-60 panel” value [1]?
**A.** 99.6%
